In US9546164B2 (GENENTECH, INC., priority 2013, dated 2017):
Counter-ions that a name gives are not always drawn. Like-named read-outs stand apart in the source and are kept apart here.

Biological target: hNav1.7 (Homo sapiens (Human), UniProt Q15858)
Experiment: Tritiated sulfonamide competitive binding to membranes from cells expressing hNav1.7 and the β1 subunit;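 further: Filter-bound radioactivity counted by liquid scintillation, nonspecific binding defined with excess unlabelled ligand, IC50 fitted to percent inhibition of specific binding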
[1] = read-out: Ligand Binding Assay, 100 pM [3H]compound, membranes with hNav1.7 and β1 subunit, 18 h, room temperature

Sequence of hNav1.7 (Q15858 other isoform, or with tags, fused parts or gaps): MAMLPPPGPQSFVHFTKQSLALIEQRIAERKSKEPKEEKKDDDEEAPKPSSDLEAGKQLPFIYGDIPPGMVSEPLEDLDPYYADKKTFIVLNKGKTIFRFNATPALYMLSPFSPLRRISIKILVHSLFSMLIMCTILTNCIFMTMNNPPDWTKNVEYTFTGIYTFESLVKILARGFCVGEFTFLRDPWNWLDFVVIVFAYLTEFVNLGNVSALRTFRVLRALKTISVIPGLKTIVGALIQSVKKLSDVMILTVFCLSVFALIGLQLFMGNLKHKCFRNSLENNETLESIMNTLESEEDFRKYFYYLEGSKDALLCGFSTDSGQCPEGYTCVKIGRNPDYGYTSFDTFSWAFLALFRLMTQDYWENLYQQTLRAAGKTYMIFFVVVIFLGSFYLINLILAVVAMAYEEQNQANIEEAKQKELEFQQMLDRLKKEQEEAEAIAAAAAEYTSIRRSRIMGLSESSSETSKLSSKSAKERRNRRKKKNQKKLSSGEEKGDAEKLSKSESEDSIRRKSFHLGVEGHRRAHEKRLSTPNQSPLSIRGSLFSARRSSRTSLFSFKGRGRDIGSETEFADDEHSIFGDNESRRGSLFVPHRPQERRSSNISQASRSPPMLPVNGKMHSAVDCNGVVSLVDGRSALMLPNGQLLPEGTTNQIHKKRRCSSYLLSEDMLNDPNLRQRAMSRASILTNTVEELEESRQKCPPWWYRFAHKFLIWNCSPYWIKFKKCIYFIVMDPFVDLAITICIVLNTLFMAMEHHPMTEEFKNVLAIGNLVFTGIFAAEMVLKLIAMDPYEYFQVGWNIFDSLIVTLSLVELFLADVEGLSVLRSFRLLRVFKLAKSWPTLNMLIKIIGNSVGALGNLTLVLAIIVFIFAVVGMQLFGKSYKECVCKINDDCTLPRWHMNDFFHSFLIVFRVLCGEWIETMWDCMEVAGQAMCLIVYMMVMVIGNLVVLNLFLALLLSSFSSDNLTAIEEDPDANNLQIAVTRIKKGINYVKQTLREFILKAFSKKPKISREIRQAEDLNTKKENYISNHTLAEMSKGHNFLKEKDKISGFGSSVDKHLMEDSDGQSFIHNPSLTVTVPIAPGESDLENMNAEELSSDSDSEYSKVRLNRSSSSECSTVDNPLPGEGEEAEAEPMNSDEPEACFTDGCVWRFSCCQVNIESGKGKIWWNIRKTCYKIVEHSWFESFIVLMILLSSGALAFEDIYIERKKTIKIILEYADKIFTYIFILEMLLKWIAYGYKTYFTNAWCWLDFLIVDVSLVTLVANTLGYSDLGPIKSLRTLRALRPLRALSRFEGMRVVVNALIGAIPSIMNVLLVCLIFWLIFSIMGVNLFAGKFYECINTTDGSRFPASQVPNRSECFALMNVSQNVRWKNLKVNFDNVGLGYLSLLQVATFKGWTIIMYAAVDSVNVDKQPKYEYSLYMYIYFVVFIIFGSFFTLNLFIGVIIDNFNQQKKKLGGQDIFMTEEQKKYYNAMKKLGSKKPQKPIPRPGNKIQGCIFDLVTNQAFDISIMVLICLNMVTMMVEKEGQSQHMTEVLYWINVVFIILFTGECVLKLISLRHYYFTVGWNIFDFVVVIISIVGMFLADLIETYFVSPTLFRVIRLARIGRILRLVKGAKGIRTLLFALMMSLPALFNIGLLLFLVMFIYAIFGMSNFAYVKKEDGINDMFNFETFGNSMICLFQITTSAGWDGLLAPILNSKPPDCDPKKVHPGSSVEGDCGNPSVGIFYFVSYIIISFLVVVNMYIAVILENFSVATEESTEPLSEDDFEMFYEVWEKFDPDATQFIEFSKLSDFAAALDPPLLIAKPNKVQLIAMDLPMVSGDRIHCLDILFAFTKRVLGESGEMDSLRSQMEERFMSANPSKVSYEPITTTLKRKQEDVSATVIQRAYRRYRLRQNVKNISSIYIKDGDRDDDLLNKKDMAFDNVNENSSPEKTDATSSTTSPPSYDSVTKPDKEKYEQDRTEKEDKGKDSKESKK
Sequence of hNav1.7 (Q07699 19-218 partner): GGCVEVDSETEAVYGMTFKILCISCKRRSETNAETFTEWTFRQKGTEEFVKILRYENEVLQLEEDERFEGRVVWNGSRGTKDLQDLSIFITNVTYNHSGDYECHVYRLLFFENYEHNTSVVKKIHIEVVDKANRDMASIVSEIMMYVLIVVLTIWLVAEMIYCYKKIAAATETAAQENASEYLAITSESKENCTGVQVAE

IC50 [1] | IC50 | SMILES
52 nM | – | O=C(NS(=O)(=O)C1CC1)c1cc(C2CC2)c(OCC2CCN(CCC(F)(F)F)CC2)cc1F [Example 193, 5-Cyclopropyl-N-(cyclopropylsulfonyl)-2-fluoro-4-((1-(3,3,3-trifluoropropyl)piperidin-4-yl)methoxy)benzamide]
– | 5.7 nM | O=C(NS(=O)(=O)C1CC1)c1cc(C2CC2)c(CN2CCC(Oc3cc(C(F)(F)F)cc(Cl)c3F)CC2)cc1F [Example 537, 4-((4-(3-chloro-2-fluoro-5-(trifluoromethyl)phenoxy)piperidin-1-yl)methyl)-5-cyclopropyl-N-(cyclopropylsulfonyl)-2-fluorobenzamide, trifluoroacetic acid salt]
5.4 nM | – | CCS(=O)(=O)NC(=O)c1cc(C2CC2)c(OCC2CCN([C@H](COC)c3ccc(Cl)cc3Cl)CC2)cc1F [Example 286, (S)-5-cyclopropyl-4-((1-(1-(2,4-dichlorophenyl)-2-methoxyethyl)piperidin-4-yl)methoxy)-N-(ethylsulfonyl)-2-fluorobenzamide]
22 nM | – | O=C(NS(=O)(=O)N1CCC1)c1cc(C2CC2)c(CN2CCC[C@H](Oc3cc(Cl)cc(Cl)c3)C2)cc1F [Example 54, (S)—N-(azetidin-1-ylsulfonyl)-5-cyclopropyl-4-((3-(3,5-dichlorophenoxy)piperidin-1-yl)methyl)-2-fluorobenzamide, acetic acid salt]
150 nM | – | COc1ccc(CN2CCC(COc3cc(F)c(C(=O)NS(C)(=O)=O)cc3C3CC3)CC2)cc1F [Example 94, 5-Cyclopropyl-2-fluoro-4-((1-(3-fluoro-4-methoxybenzyl)piperidin-4-yl)methoxy)-N-(methylsulfonyl)benzamide]
– | 2.4 nM | CC(C)(c1cccc(Cl)c1)N1CCC[C@@H](Oc2cc(F)c(C(=O)NS(C)(=O)=O)cc2C2CC2)C1 [Example 529, (R)-4-((1-(2-(3-chlorophenyl)propan-2-yl)piperidin-3-yl)oxy)-5-cyclopropyl-2-fluoro-N-(methylsulfonyl)benzamide, trifluoroacetic acid salt]
3 nM | – | CS(=O)(=O)NC(=O)c1cc(C2CC2)c(OCC2CCN(Cc3cc(F)c(Cl)cc3Cl)CC2)cc1F [Example 453, 5-cyclopropyl-4-((1-(2,4-dichloro-5-fluorobenzyl)piperidin-4-yl)methoxy)-2-fluoro-N-(methylsulfonyl)benzamide, trifluoroacetic acid salt]
3.6 nM | – | COC[C@H](c1cc(Cl)cc(Cl)c1)N1CCC(COc2cc(F)c(C(=O)NS(C)(=O)=O)cc2C2CC2)CC1 (single isomer, unassigned) [Example 163]
18 nM | – | COC[C@@H](c1cccc(Cl)c1)N1CCC(COc2cc(F)c(C(=O)NS(C)(=O)=O)cc2C2CC2)CC1 [Example 262, (R)-4-((1-(1-(3-chlorophenyl)-2-methoxyethyl)piperidin-4-yl)methoxy)-5-cyclopropyl-2-fluoro-N-(methylsulfonyl)benzamide]
59 nM | – | CC(C)Oc1ncc(CN2CC(COc3cc(F)c(C(=O)NS(C)(=O)=O)cc3C3CC3)C2)cc1Cl [Example 83, 4-((1-((5-Chloro-6-isopropoxypyridin-3-yl)methyl)azetidin-3-yl)methoxy)-5-cyclopropyl-2-fluoro-N-(methylsulfonyl)benzamide]
6.1 nM | – | CS(=O)(=O)NC(=O)c1cc(C2CC2)c(OCC2CCN(Cc3ccc(C4CC4)cc3Cl)CC2)cc1F [Example 415, 4-((1-(2-chloro-4-cyclopropylbenzyl)piperidin-4-yl)methoxy)-5-cyclopropyl-2-fluoro-N-(methylsulfonyl)benzamide, trifluoroacetic acid salt]
7.3 nM | – | CS(=O)(=O)NC(=O)c1cc(C2CC2)c(CN2CCO[C@H](Cc3ccc(F)cc3Cl)C2)cc1F [Example 466, (R)-4-((2-(2-chloro-4-fluorobenzyl)morpholino)methyl)-5-cyclopropyl-2-fluoro-N-(methylsulfonyl)benzamide, trifluoroacetic acid salt]
14.8 nM | – | O=C(NS(=O)(=O)C1CC1)c1cc(C2CC2)c(OCC2CCN(S(=O)(=O)c3cc(F)c(F)c(F)c3)CC2)cc1F [Example 381, 5-cyclopropyl-N-(cyclopropylsulfonyl)-2-fluoro-4-((1-((3,4,5-trifluorophenyl)sulfonyl)piperidin-4-yl)methoxy)benzamide]
– | 15.3 nM | CS(=O)(=O)NC(=O)c1cc(C2CC2)c(CN2CC(Oc3cc(Cl)cc(Cl)c3)C2)cc1F [Example 544, 5-cyclopropyl-4-((3-(3,5-dichlorophenoxy)azetidin-1-yl)methyl)-2-fluoro-N-(methylsulfonyl)benzamide, trifluoroacetic acid salt]
51.9 nM | – | CS(=O)(=O)NC(=O)c1cc(C2CC2)c(O[C@@H]2CCCN(Cc3ccc4c(c3)OCCO4)C2)cc1F [Example 429, (R)-5-cyclopropyl-4-((1-((2,3-dihydrobenzo[b][1,4]dioxin-6-yl)methyl)piperidin-3-yl)oxy)-2-fluoro-N-(methylsulfonyl)benzamide, trifluoroacetic acid salt]
10 nM | – | O=C(NS(=O)(=O)C1CC1)c1cc(C2CC2)c(OCC2CCN(S(=O)(=O)c3ccc(C(F)(F)F)cc3Cl)CC2)cc1F [Example 385, 4-((1-((2-chloro-4-(trifluoromethyl)phenyl)sulfonyl)piperidin-4-yl)methoxy)-5-cyclopropyl-N-(cyclopropylsulfonyl)-2-fluorobenzamide]
5.7 nM | – | CS(=O)(=O)NC(=O)c1cc(C2CC2)c(OCCC2CCN(Cc3cc(Cl)cc(Cl)c3)CC2)cc1F [Example 302, 5-cyclopropyl-4-(2-(1-(3,5-dichlorobenzyl)piperidin-4-yl)ethoxy)-2-fluoro-N-(methylsulfonyl)benzamide, trifluoroacetic acid salt]
8 nM | – | O=C(NS(=O)(=O)C1CC1)c1cc(C2CC2)c(CN2CCC[C@H](Oc3cc(Cl)cc(Cl)c3)C2)cc1F [Example 53, (S)-5-cyclopropyl-N-(cyclopropylsulfonyl)-4-((3-(3,5-dichlorophenoxy)-piperidin-1-yl)methyl)-2-fluorobenzamide]
34 nM | – | CCCCS(=O)(=O)NC(=O)c1cc(C2CC2)c(OCC2CN(C(c3ccccc3)c3ccccc3)C2)cc1F [Example 65, 4-((1-benzhydrylazetidin-3-yl)methoxy)-N-(butylsulfonyl)-5-cyclopropyl-2-fluorobenzamide]
2.5 nM | – | COC(C)(C)[C@@H](c1cc(Cl)cc(Cl)c1)N1CCC(COc2cc(F)c(C(=O)NS(C)(=O)=O)cc2C2CC2)CC1 (single isomer, unassigned) [Example 205]
16 nM | – | CS(=O)(=O)NC(=O)c1cc(C2CC2)c(OCC2CCN(Cc3ccc(F)c(C(F)(F)F)c3)CC2)cc1F [Example 189, 5-Cyclopropyl-2-fluoro-4-((1-(4-fluoro-3-(trifluoromethyl)benzyl)piperidin-4-yl)methoxy)-N-(methylsulfonyl)benzamide]
2.5 nM | – | Cc1ccc(CN2CCC[C@@H](Oc3cc(F)c(C(=O)NS(C)(=O)=O)cc3C3CC3)C2)c(Cl)c1 [Example 424, (R)-4-((1-(2-chloro-4-methylbenzyl)piperidin-3-yl)oxy)-5-cyclopropyl-2-fluoro-N-(methylsulfonyl)benzamide, trifluoroacetic acid salt]
1.88 nM | – | CS(=O)(=O)NC(=O)c1cc(C2CC2)c(OCC2CCN(Cc3cc(Cl)cc(OC(F)(F)F)c3)CC2)cc1F [Example 136, 4-((1-(3-Chloro-5-(trifluoromethoxy)benzyl)piperidin-4-yl)methoxy)-5-cyclopropyl-2-fluoro-N-(methylsulfonyl)benzamide]
– | 3.5 nM | O=C(NS(=O)(=O)C1CC1)c1cc(C2CC2)c(O[C@@H]2CCCN(Cc3ccc(F)cc3Cl)C2)cc1F [Example 7, (R)-4-((1-(2-chloro-4-fluorobenzyl)piperidin-3-yl)oxy)-5-cyclopropyl-N-(cyclopropylsulfonyl)-2-fluorobenzamide]
4.5 nM | – | CS(=O)(=O)NC(=O)c1cc(C2CC2)c(O[C@@H]2CCCN(CC3CCC4(CCC4)CC3)C2)cc1F [Example 444, (R)-5-cyclopropyl-2-fluoro-N-(methylsulfonyl)-4-((11-(spiro[3.5]nonan-7-ylmethyl)piperidin-3-yl)oxy)benzamide, trifluoroacetic acid salt]
– | 11.4 nM | O=C(NS(=O)(=O)C1CC1)c1cc(C2CC2)c(CN2CCC(Oc3ncc(C(F)(F)F)cc3Cl)CC2)cc1F [Example 524, 4-((4-((3-chloro-5-(trifluoromethyl)pyridin-2-yl)oxy)piperidin-1-yl)methyl)-5-cyclopropyl-N-(cyclopropylsulfonyl)-2-fluorobenzamide, trifluoroacetic acid salt]
6.1 nM | – | CS(=O)(=O)NC(=O)c1cc(C2CC2)c(O[C@H]2CN(Cc3ccc(F)cc3Cl)CC(F)(F)C2)cc1F [Example 445, (R)-4-((1-(2-chloro-4-fluorobenzyl)-5,5-difluoropiperidin-3-yl)oxy)-5-cyclopropyl-2-fluoro-N-(methylsulfonyl)benzamide]
3.89 nM | – | C[C@H](c1cc(Cl)cc(Cl)c1)N1CCC(COc2cc(F)c(C(=O)NS(C)(=O)=O)cc2C2CC2)CC1 [Example 99, (R)-5-Cyclopropyl-4-((1-(1-(3,5-dichlorophenyl)ethyl)piperidin-4-yl)methoxy)-2-fluoro-N-(methylsulfonyl)-benzamide]
– | 5.2 nM | O=C(NS(=O)(=O)C1CC1)c1cc(C2CC2)c(CN2CCC(Oc3cc(C(F)(F)F)c(Cl)cn3)CC2)cc1F [Example 522, 4-((4-((5-chloro-4-(trifluoromethyl)pyridin-2-yl)oxy)piperidin-1-yl)methyl)-5-cyclopropyl-N-(cyclopropylsulfonyl)-2-fluorobenzamide, trifluoroacetic acid salt]
3.9 nM | – | COC[C@@H](c1cc(Cl)cc(Cl)c1)N1CCC(COc2cc(F)c(C(=O)NS(=O)(=O)N3CCC3)cc2C2CC2)CC1 (single isomer, unassigned) [Example 166]

SMILES | IC50 [1] | IC50
O=C(NS(=O)(=O)C1CC1)c1cc(C2CC2)c(CN2CCC(Oc3ccc(C(F)(F)F)cc3)CC2)cc1F [Example 500, 5-cyclopropyl-N-(cyclopropylsulfonyl)-2-fluoro-4-((4-(4-(trifluoromethyl)phenoxy)piperidin-1-yl)methyl)benzamide] | – | 7.8 nM
